Assay results as given in ChEMBL document CHEMBL6115010, “Targeting glioma with heteroaromatic alkaloids: A review of potential therapeutics” (Bioorg Med Chem, 2025).
≈ marks a conversion by molar mass, not a printed value.

Columns and labels:
U-87 MG [1] = experiment: Antiproliferative activity against human U-87-MG cells; type: functional, cell-based, U-87MG ATCC
U-251 [2] = experiment: Antiproliferative activity against human U-251MG cells; type: functional, cell-based
U-251 [3] = experiment: Growth inhibition of human U-251MG cells measured for 48 hrs by SRB assay; type: functional
C6 [4] = experiment: Cytotoxicity against rat C6 cells assessed as reduction in cell viability incubated for 48 hrs by trypan blue dye based assay; type: functional; details: C6, 48 h
Hs 683 = experiment: Cytotoxicity against human Hs 683 cells by MTT assay; type: functional, cell-based
[5] = Cytotoxicity against human U373 MG cells by MTT assay; type: functional, cell-based, U-373MG ATCC
U-87 MG [6] = experiment: Antiproliferative activity against human U-87 MG cells assessed as reduction in cell growth incubated for 72 hrs by MTS assay; type: functional, cell-based, U-87MG ATCC
T98G [7] = experiment: Antiproliferative activity against human T98G cells assessed as reduction in cell growth incubated for 72 hrs by MTS assay; type: functional, cell-based
[8] = Antiproliferative activity against human GSC#1 cells assessed as reduction in cell growth incubated for 72 hrs by MTS assay; type: functional, cell-based; details: GSC#1, 72 h
U-87 MG [9] = experiment: Antitumor activity against human U-87 MG cells implanted with chicken egg assessed as reduction in tumor weight at 10 uM measured after 7 days by microscopic analysis (reference value: 27.87+/-4.7 mg); type: functional, U-87MG ATCC; details: time 7 day
U-251 [10] = experiment: Cytotoxicity against human U-251MG cells assessed as reduction in cell viability measured after 24 hrs by MTT assay; type: functional, cell-based; details: U-251, 24 h
U-87 MG [11] = experiment: Cytotoxicity against human U-87 MG cells assessed as reduction in cell viability measured after 24 hrs by MTT assay; type: functional, cell-based, U-87MG ATCC
U-118-MG = experiment: Cytotoxicity against human U-118-MG cells assessed as reduction in cell viability measured after 24 hrs by MTT assay; type: functional, cell-based
A 172 [12] = experiment: Cytotoxicity against human A-172 cells assessed as reduction in cell viability measured after 24 hrs by MTT assay; type: functional, cell-based; details: A 172, 24 h
[13] = Toxicity in human U-87MG cells xenografted in nude mouse assessed as lethal dose at 10 mg/kg, ip administered once daily for 20 days relative to control; type: organism-based; details: in vivo, time 20 day
U-251 [14] = experiment: Antiproliferative activity against human U-251MG cells assessed as reduction in cell growth measured at 10 uM for 48 hrs by MTT assay relative to control; type: functional; set-up: scale not given: the % may be the effect or the level left
SK-N-SH [15] = experiment: Induction of apoptosis in human SK-N-SH cells assessed as early apoptotic cells at 100 micromol/L incubated for 48 hrs by Annexin V-FITC/Propidium Iodide staining based flow cytometry analysis (reference value: 10.3 %); type: functional; details: dose 100 µmol/L, at 100 µM
SK-N-SH [16] = experiment: Induction of apoptosis in human SK-N-SH cells assessed as early apoptotic cells at 200 micromol/L incubated for 48 hrs by Annexin V-FITC/Propidium Iodide staining based flow cytometry analysis (reference value: 10.3 %); type: functional; details: dose 200 µmol/L, at 200 µM
U-87 MG [17] = experiment: Cytotoxicity against human U-87 MG cells assessed as reduction in cell viability at 400 uM measured for 24 hrs relative to control; type: functional, U-87MG ATCC
T98G [18] = experiment: Cytotoxicity against human T98G cells assessed as reduction in cell viability at 400 uM measured for 24 hrs relative to control; type: functional
SH-SY5Y = experiment: Cytotoxicity against human SH-SY5Y cells assessed as reduction in cell viability incubated for 24 hrs by MTT assay; type: functional, cell-based
U-251 [19] = experiment: Cytotoxicity against human U-251MG cells assessed as cell growth inhibition incubated for 24 hrs by MTT assay; type: functional, cell-based; details: U-251, 24 h
[20] = Antiproliferative activity against mouse GL26 cells assessed as reduction in cell viability measured for 96 hrs by MTT assay; type: functional, cell-based; details: GL26, 96 h
U-87 MG [21] = experiment: Antiproliferative activity against human U-87 MG cells assessed as reduction in cell viability measured for 96 hrs by MTT assay; type: functional, cell-based, U-87MG ATCC
SNB-19 = experiment: Antiproliferative activity against human SNB-19 cells assessed as reduction in cell viability measured for 96 hrs by MTT assay; type: functional, cell-based; details: SNB-19, 96 h
C6 [22] = experiment: Antiproliferative activity against rat C6 cells assessed as reduction in cell viability measured for 96 hrs by MTT assay; type: functional, cell-based; details: C6, 96 h
9L = experiment: Antiproliferative activity against rat 9L cells assessed as reduction in cell viability measured for 96 hrs by MTT assay; type: functional, cell-based
U-87 MG [23] = experiment: Antitumor activity against human U-87MG cells xenografted in athymic nude mouse model assessed as tumor growth inhibition at 30 mg/kg, ip administered once daily for 12 days relative to control; type: functional, U-87MG ATCC; details: 288 h, time 12 day, read-out: TGI
C6 [24] = experiment: Antitumor activity against rat C6 cells implanted in athymic nude mouse model assessed as tumor growth inhibition at 30 mg/kg, ip administered once daily for 12 days and measured after 34 days relative to control; type: functional; details: C6, 816 h, time 34 day, read-out: TGI
C6 [25] = experiment: Antitumor activity against rat C6 cells implanted in athymic nude mouse model assessed as tumor growth inhibition at 30 mg/kg, sc administered once daily for 12 days and measured after 34 days relative to control; type: functional; details: C6, 288 h, time 12 day, read-out: TGI
[26] = Antiproliferative activity against human U373 MG cells assessed as reduction in cell growth measured for 72 hrs by MTT assay; type: functional, cell-based, U-373MG ATCC
U-87 MG [27] = experiment: Cytotoxicity against human U-87 MG cells assessed as reduction in cell viability incubated for 72 hrs by neutral red uptake assay; type: functional, cell-based, U-87MG ATCC
MRC5 = experiment: Cytotoxicity against human MRC5 cells assessed as reduction in cell viability incubated for 72 hrs by neutral red uptake assay; type: functional, cell-based; details: MRC5, 72 h
U-87 MG [28] = experiment: Cytotoxicity against human U-87 MG cells assessed as reduction in cell viability in presence of Delta-Tocotrienol incubated for 72 hrs by neutral red uptake assay; type: functional, cell-based, U-87MG ATCC
U-87 MG [29] = experiment: Cytotoxicity against human U-87 MG cells assessed as reduction in cell viability in presence of Jerantinine B incubated for 72 hrs by neutral red uptake assay; type: functional, cell-based, U-87MG ATCC
U-87 MG [30] = experiment: Synergistic antiproliferative activity against human U-87 MG cells assessed as combination index at 10 uM incubated for 48 hrs in presence of 1.5 microg/ml Delta-Tocotrienol; type: functional, U-87MG ATCC
U-251 [31] = experiment: Antiproliferative activity against human U-251MG cells assessed as inhibition of cell growth measured for 72 hrs by MTT assay; type: functional, cell-based; details: U-251, 72 h
T98G [32] = experiment: Antiproliferative activity against human T98G cells assessed as inhibition of cell growth measured for 72 hrs by MTT assay; type: functional, cell-based
U-251 [33] = experiment: Cytotoxicity against human U-251MG cells assessed as inhibition of cell growth measured for 72 hrs by MTT assay; type: functional, cell-based; details: U-251, 72 h
T98G [34] = experiment: Cytotoxicity against human T98G cells assessed as inhibition of cell growth measured for 72 hrs by MTT assay; type: functional, cell-based
U-251 [35] = experiment: Antiproliferative activity against human U-251MG cells assessed as inhibition of cell growth measured for 72 hrs; type: functional, cell-based; details: U-251, 72 h
A 172 [36] = experiment: Antiproliferative activity against human A-172 cells assessed as inhibition of cell growth measured for 72 hrs; type: functional, cell-based; details: A 172, 72 h
[37] = Antiproliferative activity against human D-54MG cells assessed as inhibition of cell growth measured for 72 hrs; type: functional, cell-based; details: D54MG
U-87 MG [38] = experiment: Antiproliferative activity against human U-87 MG cells assessed as inhibition of cell growth measured for 72 hrs; type: functional, cell-based, U-87MG ATCC
T98G [39] = experiment: Antiproliferative activity against human T98G cells assessed as inhibition of cell growth measured for 72 hrs; type: functional, cell-based
U-251 [40] = experiment: Antiproliferative activity against human U-251MG cells assessed as reduction in cell growth measured for 48 hrs by MTT assay; type: functional, cell-based; details: U-251, 48 h

SMILES: C[C@@H](O)c1cc2ccncc2c(=O)[nH]1
- IC50 (U-87 MG [1]): 7.9 µM
- IC50 (U-251 [2]): 13.4 µM

SMILES: C/C=C1/CN2C3C[C@H]1[C@H](CO)[C@@H]2Cc1c3n(C)c2ccccc12
- GI50 (U-251 [3]): 9.5 µM

SMILES: COc1cc(C2(O)C(=O)N=C(N)N2C)ccc1O (stereo unspecified)
- IC50 (C6 [4]): 155 µM

SMILES: CC(C)[C@@]12NC(=O)[C@@H](Cc3c1[nH]c1ccccc31)n1c2nc2ccccc2c1=O
- IC50 (Hs 683): 50 µM
- IC50 [5]: 44 µM

SMILES: CC[C@]12C=CC(CC(C)=O)N3CC[C@]4(C(=C(C(=O)OC)C1)Nc1ccccc14)[C@@H]32 (stereo partly specified)
- IC50 (U-87 MG [6]): 1.7 µM
- IC50 (T98G [7]): 4.3 µM
- IC50 [8]: 1.3 µM

SMILES: COc1cc2c3cc1Oc1c(OC)c(OC)cc4c1[C@@H](Cc1ccc(O)c(c1)Oc1ccc(cc1)C[C@@H]3N(C)CC2)N(C)CC4 [BERBAMINE]
- Activity (U-87 MG [9]): 5.28 mg

SMILES: COc1cc2c(cc1OC)[C@@]13CCN4CC5=CCO[C@H]6CC(=O)N2[C@H]1[C@H]6[C@H]5C[C@H]43 [BRUCINE]
- IC50 (U-251 [10]): 614 µM
- IC50 (U-87 MG [11]): 604 µM
- IC50 (U-118-MG): 536 µM
- IC50 (A 172 [12]): 527 µM
- LD50 at 480 h [13]: 13.2 mg/kg

SMILES: Clc1ccccc1C(c1ccccc1)(c1ccccc1)n1ccnc1 [CLOTRIMAZOLE]
- Activity (U-251 [14]): 70%

SMILES: Nc1ncnc2c1ncn2[C@@H]1O[C@H](CO)C[C@H]1O [CORDYCEPIN]
- Activity (SK-N-SH [15]): 29.8%
- Activity (SK-N-SH [16]): 29.8%
- Activity (U-87 MG [17]): 35%
- Activity (T98G [18]): 76%
- IC50 (SH-SY5Y): 175 µM
- IC50 (U-251 [19]): 250 µM

SMILES: CC(C)=CCC/C(C)=C/CC/C(C)=C/CN1C(=O)c2cccc(O)c2Nc2c(O)cc(O)cc21 [DIAZEPINOMICIN]
- IC50 [20]: 8.9 µM
- IC50 (U-87 MG [21]): 10.9 µM
- IC50 (SNB-19): 5.3 µM
- IC50 (C6 [22]): 4.3 µM
- IC50 (9L): 8.3 µM
- inhibition in vivo at 30 mg/kg (U-87 MG [23]): 36%
- inhibition in vivo at 30 mg/kg (C6 [24]): 66%
- inhibition in vivo at 30 mg/kg (C6 [25]): 60%

SMILES: O=C1NC(=O)c2c1c1[nH]cnc1c1[nH]c3ccccc3c21 [GRANULATIMIDE]
- IC50 [26]: 6 µM

SMILES: CC[C@@]12CC(C(=O)OC)=C3Nc4cc(OC)c(O)cc4[C@@]34CCN(C[C@@H]3O[C@@H]31)[C@@H]24 [JERANTININE B]
- IC50 (U-87 MG [27]): 0.74 µg/mL (≈ 1.86 µM)
- IC50 (MRC5): 2.83 µg/mL (≈ 7.1 µM)
- IC50 (U-87 MG [28]): 0.19 µg/mL
- IC50 (U-87 MG [29]): 0.74 µg/mL
- CI (U-87 MG [30]): 0.85

SMILES: COc1cc(/C=C/C(=O)NCCc2c[nH]c3ccc(O)cc23)ccc1O [N-FERULOYL SEROTONIN]
- IC50 (U-251 [31]): 590 µM
- IC50 (T98G [32]): 730 µM
- IC50 (U-251 [33]): 238 µM
- IC50 (T98G [34]): 193 µM

SMILES: O=C(/C=C/c1ccc(O)cc1)NCCc1c[nH]c2ccc(O)cc12 [N-P-COUMAROYL SEROTONIN]
- IC50 (U-251 [35]): 77 µM
- IC50 (A 172 [36]): 62 µM
- IC50 [37]: 81 µM
- IC50 (U-87 MG [38]): 48 µM
- IC50 (T98G [39]): 68 µM

SMILES: CC(C)(O)[C@H]1O[C@H]2CC[C@@]3(C)[C@@](O)(CC[C@H]4Cc5c([nH]c6ccccc56)[C@@]43C)C2=CC1=O [PAXILLINE]
- IC50 (U-251 [40]): ~0.013 µM
